# According to ChEMBL document CHEMBL3217587, “The discovery of N-1 substituted 2-aminobenzimidazoles as zinc-dependent S. aureus biofilm inhibitors” (Medchemcomm, 2012):
# Active and inactive are the calls of the source. The rule behind the calls is not given here.
# What was measured:
# Staphylococcus aureus [1] = assay: Antimicrobial activity against methicillin-susceptible Staphylococcus aureus ATCC 29213 after 16 hrs by broth microdilution method; assay type: functional; details: ATCC 29213, 16 h
# Staphylococcus aureus [2] = assay: Antibiofilm activity against methicillin-resistant Staphylococcus aureus ATCC 43300 assessed as biofilm dispersal at 20 uM after 24 hrs by crystal violet staining-based microscopy; assay type: functional, organism-based
# Acinetobacter baumannii = assay: Antimicrobial activity against multidrug-resistant Acinetobacter baumannii ATCC BAA-1605 after 16 hrs by broth microdilution method; assay type: functional; details: ATCC BAA-1605, 16 h
# Staphylococcus aureus [3] = assay: Toxicity in methicillin-resistant Staphylococcus aureus ATCC 43300 assessed as inhibition of planktonic cell growth at IC50 after 2 to 24 hrs by spectrophotometry; assay type: organism-based
# Staphylococcus aureus [4] = assay: Antimicrobial activity against methicillin-resistant Staphylococcus aureus ATCC BAA-1556 after 16 hrs by broth microdilution method; assay type: functional; details: ATCC BAA-1556, 16 h
# Staphylococcus aureus [5] = assay: Antimicrobial activity against methicillin-resistant Staphylococcus aureus ATCC 33591 after 16 hrs by broth microdilution method; assay type: functional; details: ATCC 33591, 16 h
# Pseudomonas aeruginosa = assay: Antimicrobial activity against Pseudomonas aeruginosa PA14 after 16 hrs by broth microdilution method; assay type: functional; details: PA14, 16 h
# Staphylococcus aureus [6] = assay: Antimicrobial activity against methicillin-resistant Staphylococcus aureus ATCC 43300 after 16 hrs by broth microdilution method; assay type: functional; details: ATCC 43300, 16 h
# Staphylococcus aureus [7] = assay: Antimicrobial activity against methicillin-resistant Staphylococcus aureus ATCC 700789 after 16 hrs by broth microdilution method; assay type: functional; details: ATCC 700789, 16 h
# Staphylococcus aureus [8] = assay: Antimicrobial activity against methicillin-resistant Staphylococcus aureus ATCC BAA-44 after 16 hrs by broth microdilution method; assay type: functional; details: ATCC BAA-44, 16 h
# Staphylococcus aureus [9] = assay: Toxicity in methicillin-resistant Staphylococcus aureus ATCC BAA-44 assessed as inhibition of planktonic cell growth at IC50 after 2 to 24 hrs by spectrophotometry; assay type: organism-based
# Staphylococcus aureus [10] = assay: Antimicrobial activity against methicillin-resistant Staphylococcus aureus ATCC BAA-44 assessed as inhibition of biofilm formation after 24 hrs by crystal violet staining-based microscopy; assay type: functional, organism-based; details: ATCC BAA-44, 24 h
# Staphylococcus aureus [11] = assay: Antimicrobial activity against methicillin-resistant Staphylococcus aureus ATCC BAA-811 after 16 hrs by broth microdilution method; assay type: functional; details: ATCC BAA-811, 16 h
# Staphylococcus aureus [12] = assay: Antimicrobial activity against methicillin-resistant Staphylococcus aureus ATCC BAA-1753 after 16 hrs by broth microdilution method; assay type: functional; details: ATCC BAA-1753, 16 h
# Staphylococcus aureus [13] = assay: Antimicrobial activity against methicillin-resistant Staphylococcus aureus ATCC BAA-1685 after 16 hrs by broth microdilution method; assay type: functional; details: ATCC BAA-1685, 16 h
# Staphylococcus aureus [14] = assay: Antimicrobial activity against methicillin-resistant Staphylococcus aureus ATCC 43300 assessed as inhibition of biofilm formation after 24 hrs by crystal violet staining-based microscopy; assay type: functional, organism-based; details: ATCC 43300, 24 h
# Staphylococcus aureus [15] = assay: Antimicrobial activity against methicillin-resistant Staphylococcus aureus ATCC 43300 assessed as inhibition of biofilm formation at 8 uM after 24 hrs by crystal violet staining-based microscopy in presence of Mn2+ ion; assay type: functional, organism-based
# Staphylococcus aureus [16] = assay: Antimicrobial activity against methicillin-resistant Staphylococcus aureus ATCC 43300 assessed as inhibition of biofilm formation at 8 uM after 24 hrs by crystal violet staining-based microscopy in presence of Cu2+ ion; assay type: functional, organism-based
# Staphylococcus aureus [17] = assay: Antimicrobial activity against methicillin-resistant Staphylococcus aureus ATCC 43300 assessed as inhibition of biofilm formation at 8 uM after 24 hrs by crystal violet staining-based microscopy in presence of Mg2+ ion; assay type: functional, organism-based
# Staphylococcus aureus [18] = assay: Antimicrobial activity against methicillin-resistant Staphylococcus aureus ATCC 43300 assessed as inhibition of biofilm formation at 8 uM after 24 hrs by crystal violet staining-based microscopy in presence of Fe2+ ion; assay type: functional, organism-based
# Staphylococcus aureus [19] = assay: Antimicrobial activity against methicillin-resistant Staphylococcus aureus ATCC 43300 assessed as inhibition of biofilm formation at 8 uM after 24 hrs by crystal violet staining-based microscopy in presence of Ca2+ ion; assay type: functional, organism-based
# Staphylococcus aureus [20] = assay: Antimicrobial activity against methicillin-resistant Staphylococcus aureus ATCC 43300 assessed as inhibition of biofilm formation at 8 uM after 24 hrs by crystal violet staining-based microscopy in presence of < 50 uM Zn2+ ion; assay type: functional
# Staphylococcus aureus [21] = assay: Antimicrobial activity against methicillin-resistant Staphylococcus aureus ATCC 43300 assessed as inhibition of biofilm formation at 8 uM after 24 hrs by crystal violet staining-based microscopy in presence of > 50 uM Zn2+ ion; assay type: functional, organism-based
Structure (SMILES),MIC (Staphylococcus aureus [1]),Activity (Staphylococcus aureus [2]),MIC (Acinetobacter baumannii),Activity (Staphylococcus aureus [3]),MIC (Staphylococcus aureus [4]),MIC (Staphylococcus aureus [5]),MIC (Pseudomonas aeruginosa),MIC (Staphylococcus aureus [6]),MIC (Staphylococcus aureus [7]),MIC (Staphylococcus aureus [8]),Activity (Staphylococcus aureus [9]),IC50 (Staphylococcus aureus [10]),MIC (Staphylococcus aureus [11]),MIC (Staphylococcus aureus [12]),MIC (Staphylococcus aureus [13]),IC50 (Staphylococcus aureus [14]),further results
CCCCCc1ccc(C(=O)Nc2ccc3c(c2)nc(N)n3C(C)C)cc1.Cl,16 µg/mL,inactive,32 µg/mL,Non-toxic,8 µg/mL,16 µg/mL,> 64 µg/mL,16 µg/mL,16 µg/mL,16 µg/mL,Non-toxic,9.4 µM,16 µg/mL,16 µg/mL,8 µg/mL,7.9 µM,
CCCCCCCCn1c(N)nc2cc(NC(=O)c3ccc(CCCCC)cc3)ccc21.Cl,64 µg/mL,inactive,> 64 µg/mL,Non-toxic,> 64 µg/mL,64 µg/mL,> 64 µg/mL,64 µg/mL,64 µg/mL,64 µg/mL,Non-toxic,6.8 µM,32 µg/mL,64 µg/mL,64 µg/mL,9.3 µM,
CCCCCc1ccc(C(=O)Nc2ccc3c(c2)nc(N)n3CCCCc2ccccc2)cc1.Cl,32 µg/mL,inactive,> 64 µg/mL,Toxic,16 µg/mL,16 µg/mL,> 64 µg/mL,32 µg/mL,32 µg/mL,32 µg/mL,Toxic,14.3 µM,32 µg/mL,> 64 µg/mL,32 µg/mL,6.9 µM,
CCCCCc1ccc(C(=O)Nc2ccc3c(c2)nc(N)n3CCc2ccccc2OC)cc1.Cl,16 µg/mL,inactive,> 64 µg/mL,Non-toxic,16 µg/mL,16 µg/mL,> 64 µg/mL,16 µg/mL,16 µg/mL,16 µg/mL,Toxic,7.3 µM,8 µg/mL,16 µg/mL,16 µg/mL,5.7 µM,
CCCCCc1ccc(C(=O)Nc2ccc3c(c2)nc(N)n3CCCC)cc1.Cl,8 µg/mL,inactive,> 64 µg/mL,Non-toxic,8 µg/mL,8 µg/mL,> 64 µg/mL,8 µg/mL,8 µg/mL,8 µg/mL,Non-toxic,5 µM,8 µg/mL,8 µg/mL,8 µg/mL,4.5 µM,
CCCCCCn1c(N)nc2cc(NC(=O)c3ccc(CCCCC)cc3)ccc21.Cl,16 µg/mL,inactive,> 64 µg/mL,Non-toxic,16 µg/mL,16 µg/mL,> 64 µg/mL,16 µg/mL,32 µg/mL,16 µg/mL,Non-toxic,7.3 µM,16 µg/mL,16 µg/mL,16 µg/mL,4.7 µM,inhibition (Staphylococcus aureus [15]): Active; inhibition (Staphylococcus aureus [16]): Active; inhibition (Staphylococcus aureus [17]): Active; inhibition (Staphylococcus aureus [18]): Active; inhibition (Staphylococcus aureus [19]): Active; inhibition (Staphylococcus aureus [20]): inactive; inhibition (Staphylococcus aureus [21]): inactive
CCCCCc1ccc(C(=O)Nc2ccc3c(c2)nc(N)n3CCc2ccc3ccccc3c2)cc1.Cl,64 µg/mL,inactive,> 64 µg/mL,Toxic,32 µg/mL,32 µg/mL,> 64 µg/mL,32 µg/mL,32 µg/mL,32 µg/mL,Toxic,14.3 µM,32 µg/mL,64 µg/mL,32 µg/mL,5.7 µM,
CCCCCc1ccc(C(=O)Nc2ccc3c(c2)nc(N)n3CCCc2ccccc2)cc1.Cl,16 µg/mL,inactive,> 64 µg/mL,Non-toxic,16 µg/mL,16 µg/mL,> 64 µg/mL,16 µg/mL,32 µg/mL,32 µg/mL,Non-toxic,5.2 µM,16 µg/mL,32 µg/mL,32 µg/mL,4.7 µM,
CCCCCc1ccc(C(=O)Nc2ccc3c(c2)nc(N)n3CCc2ccccn2)cc1.Cl,32 µg/mL,inactive,> 64 µg/mL,Non-toxic,32 µg/mL,32 µg/mL,> 64 µg/mL,64 µg/mL,32 µg/mL,32 µg/mL,Non-toxic,8.9 µM,32 µg/mL,32 µg/mL,64 µg/mL,7.2 µM,
